Measured values: patent publication US20220211692A1, “Modulators of the Cystic Fibrosis Transmembrane Conductance Regulator Protein and Methods of Use” (AbbVie Global Enterprises Ltd., priority 2021, published 2022)
Where two headings read alike, the source gives them in different places.

Key:
F508del/F508del CFTR = biological target: T1, F508del/F508del CFTR (Homo sapiens, UniProt P13569, DEL508-508); assay: Trans-Epithelial Current Clamp (TECC) assay using primary human bronchial epithelial cells; assay type: cell-based; conditions: for Emax (% Dual): maximum percent activity relative to positive control (co-corrector 0.15 μM + potentiator 0.45 μM = 100%); for EC50: primary hBE cells F508del/F508del, test corrector with co-corrector and potentiator, 18-24 hours, equivalent CFTR current
T1 construct: cells isolated from CF patients with the homozygous mutation; endogenous in cells; host or cells: primary human bronchial epithelial (hBE) cells from CF patients homozygous for F508del
Excerpt: A cell-based assay was developed using the primary human bronchial epithelial cells (hBE cells) with F508del/F508del CFTR and other mutations.
Primary human bronchial epithelial (hBE) cells from CFTR patients with homozygous F508del/F508del mutation were expanded from 1×10^6 to 250×10^6 cells (Neuberger, T et al., 2011, Methods Mol Biol 741:39-54). For this purpose, cells isolated from CF patients with the homozygous mutation, procured from the CF center tissue procurement and cell culture core at the Marsico Lung Institute at UNC (Randell), the Cystic Fibrosis translational research center at McGill University (University), and Rosalind Franklin University Medical School (RFUMS) were seeded onto 24 well Corning (Cat #3378) filter plates that were coated with 3T3 conditioned media and grown at an air-liquid interface for 35 days using an Ultroser® G supplemented differentiation media. All the primary human bronchial epithelial cells were collected in accordance with institutional review board approval protocols. Apical surface mucus was removed 72 hours before the experiment by incubating the apical surface of the cells for 30 minutes with 3 mM dithiothreitol (DTT) prepared in Dulbecco's phosphate buffered saline (DPBS) with Ca^2+ and Mg^2+. This was followed with aspiration of the mucus from the apical surface along with DPBS. The apical surface was re-washed with phosphate buffered saline (PBS) incubated for 30 minutes followed with aspiration. These hBE cells were then incubated with the desired concentrations of the test C2 corrector compounds along with co-corrector, 4-[(2R,4R)-4-({[1-(2,2-difluoro-1,3-benzodioxol-5-yl)cyclopropyl]carbonyl}amino)-7-(difluoromethoxy)-3,4-dihydro-2H-chromen-2-yl]benzoic acid and potentiator, (5-{3-amino-5-[4-(trifluoromethoxy)benzene-1-sulfonyl]pyridin-2-yl}-1,3,4-oxadiazol-2-yl)methanol, for 18-24 hours at 37° C., 5% CO2. The desired concentrations of the correctors and potentiator compounds were prepared from the 10 mM stocks in differentiation media and were always applied on the basolateral side of the epithelial cells. We also used an assay format where a fixed concentration of potentiator was added chronically along with the corrector compounds. This chronic treatment with the potentiator helped eliminate any interaction that might happen with CFTR modulators (correctors and potentiators) and thereby determined the true efficacy of the modulator combinations reflective of clinical relevance.
The assay uses a Transepithelial Current Clamp (TECC) (Vu, C B et al., 2017; J Med Chem 60:458-473) instrument that can measure the functionality of the mutated channel by measuring the equivalent CFTR current (IEQ) generated by the polarized primary epithelial cells. We used a TECC-24 with a 24-channel electrode manifold allowing for the simultaneous measurement of the transepithelial voltage, VT, and transepithelial resistance, RT, under current clamp conditions, from 24 filters using a 24 well Costar filter plate. The design of the filters in the 24 well filter plates was exactly the same as the design of an individual Transwell filter used in the classical Ussing Chamber with a surface area of 0.33 cm^2. Each measured VT values were corrected for the electrode offset potential measured using buffer alone in a separate plate, and each measured RT values were then corrected for the combined solution series and empty filter resistances. The corrected VT and RT values were then used to calculate the equivalent current, IEQ using Ohm's law (IEQ=VT/RT). The area under the curve (AUC) for the time period between the forskolin peak IEQ response and at the time of bumetanide addition was also calculated using a one-third trapezoid method, in addition to calculating the IEQ. The assay was run in a 24-well format and all 24-wells were measured at the same time point giving a higher throughput for this assay. […]

F508delCFTR = biological target: T2, F508delCFTR (Homo sapiens, UniProt P13569, DEL508-508); assay: Cell Surface Expression-Horse Radish Peroxidase (CSE-HRP) assay in CFBE41o-F508delCFTR-HRP cells; assay type: cell-based; conditions: for EC50: CFBE41o-F508delCFTR-HRP cells, 18-24 hours at 33° C.; for Maximum % activity (with co-corrector) / Emax: normalized to on-plate positive control; for Emax: read-out: Maximum % activity (without co-corrector)
T2 construct: expressed in transfected cells; host or cells: CFBE41o- human lung derived epithelial cell line, doxycycline-induced expression
Experimental: A cellular assay for measuring the F508delCFTR cell surface expression after correction with test compounds either without or with a co-corrector (2 μM of 3-[(2R,4R)-4-({[1-(2,2-difluoro-1,3-benzodioxol-5-yl)cyclopropyl]carbonyl}amino)-7-methoxy-3,4-dihydro-2H-chromen-2-yl]benzoic acid), was developed in human lung derived epithelial cell line (CFBE41o-) (Veit G et al, (2012) Mol Biol Cell. 23(21): 4188-4202). The development was achieved by expressing the F508delCFTR mutation along with a horseradish peroxidase (HRP) in the fourth exofacial loop, and then measuring the HRP activity using luminescence readout from these cells, CFBE41o-F508delCFTR-HIRP, that were incubated overnight with the test corrector compounds, either without or with the co-corrector. For this primary assay, the CFBE41o-F508delCFTR-HRP cells were plated in 384-well plates (Greiner Bio-one; Cat 781080) at 4,000 cells/well along with 0.5 μg/mL doxycycline to induce the F508delCFTR-HRP expression and further incubated at 37° C., […] for 68-72 hours. The test compounds were then added either without or with a co-corrector at the required concentrations and further incubated for 18-24 hours at 33° C. The highest concentration tested was 20 μM or 30 μM (GI-1 to GIII-36) with an 8-point concentration response curve using a 3-fold dilution in both the test compound without or with the co-corrector. Three replicate plates were run to determine one EC50. All plates contained negative controls (dimethyl sulfoxide, DMSO) and positive control (2 μM or 3 μM (GI-1 to GIII-36) of 3-[(2R,4R)-4-({[1-(2,2-difluoro-1,3-benzodioxol-5-yl)cyclopropyl]carbonyl}amino)-7-methoxy-3,4-dihydro-2H-chromen-2-yl]benzoic acid) as well as on-plate concentration response of the positive control. Post incubation, the plates were washed 5× times with Dulbecco's phosphate buffered saline (DPBS), followed by the addition of the HRP substrate, luminol (50 μL), and measuring the HRP activity using luminescence readout on EnVision® Multilabel Plate Reader (Perkin Elmer; product number 2104-0010). The raw counts from the experiment were analyzed using Accelrys® Assay Explorer v3.3.
Z′ greater than 0.5 was used as passing quality control criteria for the plates. The Z′ is defined as:
1−[3*SDPositive Control+3*SDNegative Control/Absolute(MeanPositive Control−MeanNegative Control)]
The % activity measured at each of the 8 test concentrations of the test compound added either without or with a co-corrector (2 μM or 3 μM (GI-1 to GIII-36) of 3-[(2R,4R)-4-({[1-(2,2-difluoro-1,3-benzodioxol-5-yl)cyclopropyl]carbonyl}amino)-7-methoxy-3,4-dihydro-2H-chromen-2-yl]benzoic acid) was normalized to the on-plate positive control using the following formulae:
% activity (Test compound without co-corrector)=[(test compound without co-corrector response−DMSO response)/(positive control response−DMSO response)]*100
% activity (Test compound with co-corrector)=[(test compound with co-corrector response−DMSO response)/(positive control response−DMSO response)]*100
The maximum % activity achieved for the test compound either without or with a co-corrector at any tested concentration is presented in Table 3 along with the respective EC50's calculated using the following general sigmoidal curve with variable Hill slope equation (described as Model 42 in the Accelrys® Assay Explorer v3.3 software):
General sigmoidal curve with concentration, response, top, bottom, EC50 and Hill slope. This model describes a sigmoidal curve with an adjustable baseline, a. The equation can be used to fit curves where response is either increasing or decreasing with respect to the independent variable, “x”.

[1] = with co-corrector 2 μM, read-out: EC50 (with co-corrector)
[2] = without co-corrector, read-out: EC50 (without co-corrector)

T2 sequence (P13569 with tags, fused parts or gaps DEL508-508): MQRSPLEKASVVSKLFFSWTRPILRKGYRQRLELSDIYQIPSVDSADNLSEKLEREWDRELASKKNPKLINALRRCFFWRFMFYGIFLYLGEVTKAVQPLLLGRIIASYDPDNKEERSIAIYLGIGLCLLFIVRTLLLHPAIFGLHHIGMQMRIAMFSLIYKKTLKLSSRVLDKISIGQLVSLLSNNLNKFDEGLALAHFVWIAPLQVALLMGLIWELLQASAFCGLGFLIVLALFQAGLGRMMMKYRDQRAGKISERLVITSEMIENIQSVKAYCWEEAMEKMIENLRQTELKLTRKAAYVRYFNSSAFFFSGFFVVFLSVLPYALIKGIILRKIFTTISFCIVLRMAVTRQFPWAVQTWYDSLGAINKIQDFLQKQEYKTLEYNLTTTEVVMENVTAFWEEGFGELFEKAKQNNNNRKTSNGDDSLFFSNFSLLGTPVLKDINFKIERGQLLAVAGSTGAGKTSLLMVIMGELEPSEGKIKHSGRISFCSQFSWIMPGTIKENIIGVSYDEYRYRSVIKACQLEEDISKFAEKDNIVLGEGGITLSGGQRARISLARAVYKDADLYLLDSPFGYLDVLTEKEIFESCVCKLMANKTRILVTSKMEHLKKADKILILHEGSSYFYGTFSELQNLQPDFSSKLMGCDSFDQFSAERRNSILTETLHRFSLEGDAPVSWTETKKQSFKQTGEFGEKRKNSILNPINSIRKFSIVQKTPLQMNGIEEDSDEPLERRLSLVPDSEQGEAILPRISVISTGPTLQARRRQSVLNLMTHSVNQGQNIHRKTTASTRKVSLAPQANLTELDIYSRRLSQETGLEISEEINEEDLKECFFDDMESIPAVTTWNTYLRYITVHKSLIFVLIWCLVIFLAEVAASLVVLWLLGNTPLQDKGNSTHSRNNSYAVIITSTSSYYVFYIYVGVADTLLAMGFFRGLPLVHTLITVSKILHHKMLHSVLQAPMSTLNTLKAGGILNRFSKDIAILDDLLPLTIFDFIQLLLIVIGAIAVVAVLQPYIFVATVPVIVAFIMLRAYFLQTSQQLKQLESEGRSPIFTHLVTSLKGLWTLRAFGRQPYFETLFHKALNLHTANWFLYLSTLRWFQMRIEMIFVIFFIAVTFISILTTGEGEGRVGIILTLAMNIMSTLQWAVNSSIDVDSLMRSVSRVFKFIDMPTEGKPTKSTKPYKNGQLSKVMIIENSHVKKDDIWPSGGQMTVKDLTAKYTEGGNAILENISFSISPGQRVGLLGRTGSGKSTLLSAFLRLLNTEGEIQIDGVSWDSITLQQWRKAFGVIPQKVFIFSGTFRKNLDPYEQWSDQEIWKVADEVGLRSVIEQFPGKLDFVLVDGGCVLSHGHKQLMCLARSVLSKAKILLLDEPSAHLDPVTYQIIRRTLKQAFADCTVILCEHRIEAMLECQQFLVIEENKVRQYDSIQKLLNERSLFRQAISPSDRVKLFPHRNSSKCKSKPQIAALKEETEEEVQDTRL
T1 sequence (P13569 with tags, fused parts or gaps DEL508-508): as above

| Emax (% Dual) (F508del/F508del CFTR) | EC50 (F508del/F508del CFTR) [nM] | EC50 (F508delCFTR; [1]) [nM] | Maximum % activity (with co-corrector) (F508delCFTR; with co-corrector 2 μM) [%] | EC50 (F508delCFTR; [2]) [nM] | Emax (F508delCFTR; without co-corrector) [%] | SMILES |
| --- | --- | --- | --- | --- | --- | --- |
| 119 | > 300 | 4990 | 399 | 6490 | 122 | CCc1ccc(OC[C@H](C)OC)c([C@]2(C(=O)NS(=O)(=O)c3cccc4nc(C)ccc34)CCCO2)c1 [Example 13, (2S)-2-{5-ethyl-2-[(2S)-2-methoxypropoxy]phenyl}-N-(2-methylquinoline-5-sulfonyl)oxolane-2-carboxamide] |
| 264 | 20.1 | 1630 | – | 2300 | 756 | COc1ccc(C)cc1[C@@]1(C(=O)NS(=O)(=O)c2cccc3nc(C)ccc23)C[C@H](c2ccccc2)CO1 [Example 33, (2R,4R)-2-(2-methoxy-5-methylphenyl)-N-(2-methylquinoline-5-sulfonyl)-4-phenyloxolane-2-carboxamide] |
| 117 | > 5000 | – | – | 5160 | 100 | COc1ccc(C)cc1[C@]1(C(=O)NS(=O)(=O)c2cccc3nc(C)ccc23)C[C@@](C)(OC)CO1 [Example 31, (2S,4R)-4-methoxy-2-(2-methoxy-5-methylphenyl)-4-methyl-N-(2-methylquinoline-5-sulfonyl)oxolane-2-carboxamide] |
| 242 | 7.8 | 1210 | – | 2270 | – | COc1ccc(C)cc1[C@@]1(C(=O)NS(=O)(=O)c2cccc3nc(C)ccc23)CC(C)(C)CO1 [Example 5, (2R)-2-(2-methoxy-5-methylphenyl)-4,4-dimethyl-N-(2-methylquinoline-5-sulfonyl)oxolane-2-carboxamide] |
| 178 | 123 | 1010 | 708 | 1510 | 307 | COc1ccc(C)cc1[C@@]1(C(=O)NS(=O)(=O)c2cccc3nc(C)ccc23)CC2(CC2)CO1 [Example 15, (6R)-6-(2-methoxy-5-methylphenyl)-N-(2-methylquinoline-5-sulfonyl)-5-oxaspiro[2.4]heptane-6-carboxamide] |
| 284 | 34.6 | – | – | – | – | COc1ccc(C)cc1[C@]1(C(=O)NS(=O)(=O)c2cccc3nc(N)ccc23)CC(C)(C)CO1 [Example 34, (2S)—N-(2-aminoquinoline-5-sulfonyl)-2-(2-methoxy-5-methylphenyl)-4,4-dimethyloxolane-2-carboxamide] |
| 208 | 2.6 | 160 | – | 440 | 705 | COc1ccccc1[C@@H]1CO[C@@](C(=O)NS(=O)(=O)c2cccc3nc(N)ccc23)(c2cc(C)ccc2OC)C1 [Example 40, (2R,4R)—N-(2-aminoquinoline-5-sulfonyl)-2-(2-methoxy-5-methylphenyl)-4-(2-methoxyphenyl)oxolane-2-carboxamide] |
| 110 | > 300 | 2550 | 444 | 4800 | 147 | COc1ccc(C)cc1[C@]1(C(=O)NS(=O)(=O)c2cccc3nc(C)ccc23)CC2(CC2)CO1 [Example 16, (6S)-6-(2-methoxy-5-methylphenyl)-N-(2-methylquinoline-5-sulfonyl)-5-oxaspiro[2.4]heptane-6-carboxamide] |
| 248 | 443 | – | – | – | – | COc1ccc(C)cc1[C@@]1(C(=O)NS(=O)(=O)c2cccc3nc(N)ccc23)CC(C)(C)CO1 [Example 35, (2R)—N-(2-aminoquinoline-5-sulfonyl)-2-(2-methoxy-5-methylphenyl)-4,4-dimethyloxolane-2-carboxamide] |
| 152 | > 800 | – | – | – | – | CCc1ccc(Oc2cccnc2OC)c(C2(C(=O)NS(=O)(=O)c3cccc4nc(C)ccc34)CCCO2)c1 (stereo not shown) [Example 18, 2-{5-ethyl-2-[(2-methoxypyridin-3-yl)oxy]phenyl}-N-(2-methylquinoline-5-sulfonyl)oxolane-2-carboxamide] |
| 216 | 59.9 | – | – | – | – | COc1cccc([C@H]2CO[C@@](C(=O)NS(=O)(=O)c3cccc4nc(C)ccc34)(c3cc(C)ccc3OC)C2)c1 [Example 43, (2R,4S)-2-(2-methoxy-5-methylphenyl)-4-(3-methoxyphenyl)-N-(2-methylquinoline-5-sulfonyl)oxolane-2-carboxamide] |
| 263 | 20.8 | – | – | – | – | COc1ccc(C)cc1[C@@]1(C(=O)NS(=O)(=O)c2cccc3nc(C)ccc23)C[C@@H](c2ccccc2)CO1 [Example 32, (2R,4S)-2-(2-methoxy-5-methylphenyl)-N-(2-methylquinoline-5-sulfonyl)-4-phenyloxolane-2-carboxamide] |
